How the values were obtained:
Type in all cases: functional
[1] = tested on: A498; experiment: Cytotoxicity against human A498 cells assessed as cell growth at 10 uM after 48 hrs by SRB assay relative to control; settings: A498, 48 h, read-out: Activity
[2] = tested on: DU-145; experiment: Cytotoxicity against human DU145 cells assessed as cell growth at 10 uM after 48 hrs by SRB assay relative to control; settings: DU-145, 48 h, read-out: Activity
[3] = Cytotoxicity against human Hs 578T cells assessed as cell growth at 10 uM after 48 hrs by SRB assay relative to control; settings: read-out: Activity
[4] = tested on: BT-549; experiment: Cytotoxicity against human BT549 cells assessed as cell growth at 10 uM after 48 hrs by SRB assay relative to control; settings: BT-549, 48 h, read-out: Activity
[5] = tested on: T47D; experiment: Cytotoxicity against human T47D cells assessed as cell growth at 10 uM after 48 hrs by SRB assay relative to control; settings: read-out: Activity
[6] = tested on: MDA-MB-468; experiment: Cytotoxicity against human MDA-MB-468 cells assessed as cell growth at 10 uM after 48 hrs by SRB assay relative to control; settings: MDA-MB-468, 48 h, read-out: Activity
[7] = tested on: EKVX; experiment: Cytotoxicity against human EKVX cells assessed as cell growth at 10 uM after 48 hrs by SRB assay relative to control; settings: read-out: Activity
[8] = tested on: SNB-75; experiment: Cytotoxicity against human SNB75 cells assessed as cell growth at 10 uM after 48 hrs by SRB assay relative to control; settings: SNB-75, 48 h, read-out: Activity
[9] = tested on: U-251; experiment: Cytotoxicity against human U251 cells assessed as cell growth at 10 uM after 48 hrs by SRB assay relative to control; settings: U-251, 48 h, read-out: Activity
[10] = tested on: MDA-MB-435; experiment: Cytotoxicity against human MDA-MB-435 cells assessed cell growth at 10 uM after 48 hrs by SRB assay relative to control
[11] = tested on: IGROV-1; experiment: Cytotoxicity against human IGROV1 cells assessed as cell growth at 10 uM after 48 hrs by SRB assay relative to control; settings: IGROV-1, 48 h, read-out: Activity
[12] = tested on: CAKI-1; experiment: Cytotoxicity against human Caki1 cells assessed as cell growth at 10 uM after 48 hrs by SRB assay relative to control; settings: CAKI-1, 48 h, read-out: Activity
[13] = tested on: UO-31; experiment: Cytotoxicity against human UO31 cells assessed as cell growth at 10 uM after 48 hrs by SRB assay relative to control; settings: UO-31, 48 h, read-out: Activity
[14] = tested on: NCI-H522; experiment: Cytotoxicity against human NCI-H522 cells assessed as cell growth at 10 uM after 48 hrs by SRB assay relative to control; settings: NCI-H522, 48 h, read-out: Activity
[15] = tested on: M14; experiment: Cytotoxicity against human M14 cells assessed as cell growth at 10 uM after 48 hrs by SRB assay relative to control; settings: M14, 48 h, read-out: Activity
[16] = tested on: SK-OV-3; experiment: Cytotoxicity against human SKOV3 cells assessed as cell growth at 10 uM after 48 hrs by SRB assay relative to control; settings: SK-OV-3, 48 h, read-out: Activity
[17] = tested on: A549; experiment: Cytotoxicity against human A549 cells assessed as cell growth at 10 uM after 48 hrs by SRB assay relative to control; settings: A549, 48 h, read-out: Activity
[18] = tested on: K562; experiment: Cytotoxicity against human K562 cells assessed as cell growth at 10 uM after 48 hrs by SRB assay relative to control; settings: K562, 48 h, read-out: Activity
[19] = tested on: NCI-H23; experiment: Cytotoxicity against human NCI-H23 cells assessed as cell growth at 10 uM after 48 hrs by SRB assay relative to control; settings: NCI-H23, 48 h, read-out: Activity
[20] = tested on: NCI-H460; experiment: Cytotoxicity against human NCI-H460 cells assessed as cell growth at 10 uM after 48 hrs by SRB assay relative to control; settings: NCI-H460, 48 h, read-out: Activity
[21] = tested on: HCC 2998; experiment: Cytotoxicity against human HCC2998 cells assessed as cell growth at 10 uM after 48 hrs by SRB assay relative to control; settings: HCC 2998, 48 h, read-out: Activity
[22] = tested on: HCT-15; experiment: Cytotoxicity against human HCT15 cells assessed as cell growth at 10 uM after 48 hrs by SRB assay relative to control; settings: HCT-15, 48 h, read-out: Activity
[23] = tested on: SF-268; experiment: Cytotoxicity against human SF268 cells assessed as cell growth at 10 uM after 48 hrs by SRB assay relative to control; settings: SF-268, 48 h, read-out: Activity
[24] = tested on: SF-295; experiment: Cytotoxicity against human SF295 cells assessed as cell growth at 10 uM after 48 hrs by SRB assay relative to control; settings: SF-295, 48 h, read-out: Activity
[25] = tested on: SF-539; experiment: Cytotoxicity against human SF539 cells assessed as cell growth at 10 uM after 48 hrs by SRB assay relative to control; settings: SF-539, 48 h, read-out: Activity
[26] = tested on: SNB-19; experiment: Cytotoxicity against human SNB19 cells assessed as cell growth at 10 uM after 48 hrs by SRB assay relative to control; settings: SNB-19, 48 h, read-out: Activity
[27] = tested on: LOX IMVI; experiment: Cytotoxicity against human LOXIMVI cells assessed as cell growth at 10 uM after 48 hrs by SRB assay relative to control; settings: read-out: Activity
[28] = tested on: Malme-3M; experiment: Cytotoxicity against human MALME-3M cells assessed as cell growth at 10 uM after 48 hrs by SRB assay relative to control; settings: read-out: Activity
[29] = tested on: SK-MEL-28; experiment: Cytotoxicity against human SK-MEL-28 cells assessed as cell growth at 10 uM after 48 hrs by SRB assay relative to control; settings: SK-MEL-28, 48 h, read-out: Activity
[30] = tested on: SK-MEL-5; experiment: Cytotoxicity against human SK-MEL-5 cells assessed as cell growth at 10 uM after 48 hrs by SRB assay relative to control; settings: SK-MEL-5, 48 h, read-out: Activity
[31] = tested on: UACC-257; experiment: Cytotoxicity against human UACC257 cells assessed as cell growth at 10 uM after 48 hrs by SRB assay relative to control; settings: UACC-257, 48 h, read-out: Activity
[32] = tested on: UACC-62; experiment: Cytotoxicity against human UACC62 cells assessed as cell growth at 10 uM after 48 hrs by SRB assay relative to control; settings: UACC-62, 48 h, read-out: Activity
[33] = tested on: OVCAR-3; experiment: Cytotoxicity against human OVCAR3 cells assessed as cell growth at 10 uM after 48 hrs by SRB assay relative to control; settings: OVCAR-3, 48 h, read-out: Activity
[34] = tested on: OVCAR-8; experiment: Cytotoxicity against human OVCAR8 cells assessed as cell growth at 10 uM after 48 hrs by SRB assay relative to control; settings: OVCAR-8, 48 h, read-out: Activity
[35] = tested on: NCI/ADR-RES; experiment: Cytotoxicity against human NCI/ADR-RES cells assessed as cell growth at 10 uM after 48 hrs by SRB assay relative to control; settings: read-out: Activity

Row | Compound | growth at 10 µM [1] [%] | growth at 10 µM [2] [%] | growth at 10 µM [3] [%] | growth at 10 µM [4] [%] | growth at 10 µM [5] [%] | growth at 10 µM [6] [%] | growth at 10 µM [7] [%] | growth at 10 µM [8] [%] | growth at 10 µM [9] [%] | Activity [10] [%] | growth at 10 µM [11] [%] | growth at 10 µM [12] [%] | growth at 10 µM [13] [%] | growth at 10 µM [14] [%] | growth at 10 µM [15] [%] | growth at 10 µM [16] [%] | growth at 10 µM [17] [%] | growth at 10 µM [18] [%] | growth at 10 µM [19] [%] | growth at 10 µM [20] [%] | further results
1 | Cn1cc(-c2[nH]c(=O)[nH]c(=O)c2-c2cn(C)c3ccccc23)c2ccccc21 | 112 | 115 | 105 | 95.8 | 82.4 | 88.5 | 68.7 | 70.2 | 113 | 73.39 | 62.2 | 68.6 | 75.8 | 93.1 | 89.8 | 96.8 | 96.9 | 93.8 | 91.4 | 88.2 | growth at 10 µM [21]: 109%; growth at 10 µM [22]: 95%; growth at 10 µM [23]: 106%; growth at 10 µM [24]: 97.1%; growth at 10 µM [25]: 111%; growth at 10 µM [26]: 109%; growth at 10 µM [27]: 104%; growth at 10 µM [28]: 98.6%; growth at 10 µM [29]: 103%; growth at 10 µM [30]: 101%; growth at 10 µM [31]: 82.1%; growth at 10 µM [32]: 88.3%; growth at 10 µM [33]: 97.3%; growth at 10 µM [34]: 98.1%; growth at 10 µM [35]: 103%
2 | Cn1c2ccccc2c2c3nc(N)[nH]c(=O)c3c3c4ccccc4n(C)c3c21 | 114 | 44.9 | 113 | 76.6 | 75 | 80.3 | 73.5 | 96.8 | 76.1 | 24.36 | 65.8 | -14.9 | 7.16 | 46.1 | 34.9 | 34.9 | 58.5 | 44.4 | 65.4 | 40.6 | growth at 10 µM [21]: 60.9%; growth at 10 µM [22]: 43.7%; growth at 10 µM [23]: 73.5%; growth at 10 µM [24]: 86.6%; growth at 10 µM [25]: 99.1%; growth at 10 µM [26]: 122%; growth at 10 µM [27]: 60.9%; growth at 10 µM [28]: 36.2%; growth at 10 µM [29]: 91%; growth at 10 µM [30]: 48.8%; growth at 10 µM [31]: 79.7%; growth at 10 µM [32]: 81.3%; growth at 10 µM [33]: 82.9%; growth at 10 µM [34]: 43.1%; growth at 10 µM [35]: 48.7%
3 | Cn1cc(-c2nc(N)[nH]c(=O)c2-c2cn(C)c3ccccc23)c2ccccc21 | 112 | 122 | 103 | 102 | 93.8 | 106 | 105 | 103 | 100 | 109.77 | 68.9 | 94.6 | 64.6 | 86.7 | 97.6 | 95.8 | 101 | 111 | 95 | 90.7 | growth at 10 µM [21]: 120%; growth at 10 µM [22]: 117%; growth at 10 µM [23]: 109%; growth at 10 µM [24]: 90.7%; growth at 10 µM [25]: 141%; growth at 10 µM [26]: 111%; growth at 10 µM [27]: 118%; growth at 10 µM [28]: 112%; growth at 10 µM [29]: 118%; growth at 10 µM [30]: 101%; growth at 10 µM [31]: 95.6%; growth at 10 µM [32]: 96.1%; growth at 10 µM [33]: 109%; growth at 10 µM [34]: 97.5%; growth at 10 µM [35]: 108%

— ChEMBL document CHEMBL2086254, “Synthesis and identification of novel indolo[2,3-a]pyrimido[5,4-c]carbazoles as a new class of anti-cancer agents” (Eur J Med Chem, 2012)
